# Assay results from ChEMBL document CHEMBL1212821 (J Med Chem, 2010).
# pEC50, pIC50: −log10 of the molar value.
# How the values were obtained:
# [1] = Antiproliferative activity against human hTERT-HME1 cells after 72 hrs by Alamar blue assay
# [2] = Antiproliferative activity against human KB3-1 cells after 72 hrs by Alamar blue assay in presence of zosuquidar; conditions: KB 3-1, 72 h
# [3] = Antiproliferative activity against human KBV1 cells overexpressing MDR1 after 72 hrs by Alamar blue assay in presence of zosuquidar; conditions: KB-V1, 72 h
# [4] = Antiproliferative activity against human KBV1 cells overexpressing MDR1 after 72 hrs by Alamar blue assay; conditions: KB-V1, 72 h
# [5] = Drug resistant ratio of EC50 for human KBV1 cells overexpressing MDR1 to EC50 for KB3-1 cells; format: functional, cell-based
# [6] = tested on: HCT-116; assay: Antiproliferative activity against human HCT116 cells after 72 hrs by Alamar blue assay
# [7] = tested on: BXPC-3; assay: Antiproliferative activity against human BxPC3 cells after 72 hrs by Alamar blue assay
# [8] = tested on: NCI-H1299; assay: Antiproliferative activity against human NCI-H1299 cells after 72 hrs by Alamar blue assay
# [9] = tested on: K562; assay: Antiproliferative activity against human K562 cells after 72 hrs by Alamar blue assay
# [10] = Antiproliferative activity against human KB3-1 cells after 72 hrs by Alamar blue assay; conditions: KB 3-1, 72 h
# [11] = molecular target: T1, Kinesin-like protein KIF11 (Homo sapiens, UniProt P52732); assay: Inhibition of human kinesin Eg5
# T1 sequence (P52732 whole entry): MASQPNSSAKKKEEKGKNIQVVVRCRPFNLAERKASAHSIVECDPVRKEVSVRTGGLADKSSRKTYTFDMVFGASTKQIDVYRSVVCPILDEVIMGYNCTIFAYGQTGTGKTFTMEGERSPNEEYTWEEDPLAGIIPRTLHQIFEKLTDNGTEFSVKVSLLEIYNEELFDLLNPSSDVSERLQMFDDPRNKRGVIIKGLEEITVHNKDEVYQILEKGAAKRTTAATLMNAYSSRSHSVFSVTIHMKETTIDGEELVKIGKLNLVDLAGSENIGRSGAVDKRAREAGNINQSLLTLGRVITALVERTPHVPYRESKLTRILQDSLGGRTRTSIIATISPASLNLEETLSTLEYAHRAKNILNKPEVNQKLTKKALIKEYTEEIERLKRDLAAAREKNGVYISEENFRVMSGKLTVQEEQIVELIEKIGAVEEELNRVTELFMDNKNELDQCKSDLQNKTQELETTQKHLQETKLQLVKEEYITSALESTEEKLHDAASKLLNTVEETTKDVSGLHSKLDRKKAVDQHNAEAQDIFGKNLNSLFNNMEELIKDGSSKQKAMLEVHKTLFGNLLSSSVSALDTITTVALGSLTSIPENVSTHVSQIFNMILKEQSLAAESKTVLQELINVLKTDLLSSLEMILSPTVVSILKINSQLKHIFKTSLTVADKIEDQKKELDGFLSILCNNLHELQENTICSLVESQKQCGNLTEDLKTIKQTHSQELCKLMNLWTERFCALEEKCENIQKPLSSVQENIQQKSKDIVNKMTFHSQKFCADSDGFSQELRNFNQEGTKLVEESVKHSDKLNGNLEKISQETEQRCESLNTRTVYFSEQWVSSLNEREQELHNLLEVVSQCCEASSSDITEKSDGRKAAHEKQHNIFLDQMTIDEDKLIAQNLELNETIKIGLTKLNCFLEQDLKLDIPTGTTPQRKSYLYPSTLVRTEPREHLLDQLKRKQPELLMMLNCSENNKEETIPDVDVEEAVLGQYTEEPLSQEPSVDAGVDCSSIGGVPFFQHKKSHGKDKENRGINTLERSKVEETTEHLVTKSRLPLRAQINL
Structure (SMILES),pEC50 ([6]; hct-116),pEC50 ([7]; bxpc-3),pEC50 ([8]; nci-h1299),pEC50 ([9]; k562),"pEC50 ([6]; Homo sapiens, HCT-116, 72 h)","pEC50 ([7]; Homo sapiens, BXPC-3, 72 h)","pEC50 ([8]; Homo sapiens, NCI-H1299, 72 h)","pEC50 ([9]; Homo sapiens, K562, 72 h)",pEC50 ([1]; hme1),"pEC50 ([1]; Homo sapiens, HME1, 72 h)",also measured
CC1=C(C(=O)c2ccc(F)c(F)c2)C(c2cccc(O)c2)NC(=S)N1C (racemic),6.41,6.22,5.87,5.94,–,–,–,–,6.61,–,pEC50 [2]: 6.10; pEC50 [3]: 6.17; pEC50 [4]: 5.68; ratio [5]: 2.5; pEC50 [10]: 6.08
O=C1CCCC2=C1C(c1cccc(O)c1)NC(=S)N2 (racemic),–,–,–,–,5.74,5.68,5.31,5.32,–,5.61,–
CCOC(=O)C1=C(C)NC(=S)NC1c1cccc(O)c1 (racemic) [MONASTROL],–,–,–,–,4.62,< 7.00,< 7.00,< 7.00,–,4.35,pEC50 [2]: 4.25; pEC50 [3]: 4.34; pEC50 [4]: 4.00; ratio [5]: 1.2; pEC50 [10]: 4.07
CC1=C(C(=O)c2ccc(F)cc2)C(c2cccc(O)c2)NC(=S)N1C (stereo unspecified),–,–,–,–,6.02,5.67,5.62,5.58,–,5.59,–
CC[C@]1(O)C[C@@H]2CN(CCc3c([nH]c4ccccc34)[C@@](C(=O)OC)(c3cc4c(cc3OC)N(C)[C@H]3[C@@](O)(C(=O)OC)[C@H](OC(C)=O)[C@]5(CC)C=CCN6CC[C@]43[C@@H]65)C2)C1 [VINBLASTINE],–,–,–,–,–,–,–,–,–,–,pEC50 [2]: 8.07; pEC50 [3]: 7.89; pEC50 [4]: 5.69; ratio [5]: 162; pEC50 [10]: 7.90
CCOC(=O)C1=C(C)NC(=S)N[C@@H]1c1cccc(O)c1,–,–,–,–,–,–,–,–,–,–,pIC50 [11]: 4.52
CC1=C(C(=O)c2ccc(F)c(F)c2)C(c2cccc(O)c2)NC(=S)N1C (stereo in doubt; form 2),6.49,6.13,6.11,6.09,–,–,–,–,6.65,–,–
CC1=C(C(=O)c2ccc(F)c(F)c2)C(c2cccc(O)c2)NC(=S)N1C (stereo in doubt; form 1),4.82,4.47,4.48,4.58,–,–,–,–,< 7.00,–,–

# Second part, led by results:
pEC50 ([6]; hct-116),pEC50 ([7]; bxpc-3),pEC50 ([8]; nci-h1299),pEC50 ([9]; k562),"pEC50 ([6]; Homo sapiens, HCT-116, 72 h)","pEC50 ([7]; Homo sapiens, BXPC-3, 72 h)","pEC50 ([8]; Homo sapiens, NCI-H1299, 72 h)","pEC50 ([9]; Homo sapiens, K562, 72 h)",Structure (SMILES),pEC50 ([1]; hme1),"pEC50 ([1]; Homo sapiens, HME1, 72 h)",also measured
5.74,5.30,5.16,5.25,–,–,–,–,CC1=C(C(=O)c2ccccc2)C(c2cccc(O)c2)NC(=S)N1C (stereo in doubt; form 1),5.75,–,–
–,–,–,–,5.89,5.55,5.56,5.56,CC1=C(C(=O)c2cccc(F)c2)C(c2cccc(O)c2)NC(=S)N1C (stereo unspecified),–,5.55,–
5.19,4.84,4.74,4.94,–,–,–,–,CC1=C(C(=O)c2ccccc2)C(c2cccc(O)c2)NC(=S)N1C (stereo in doubt; form 2),< 4.30,–,–
5.76,5.44,5.34,5.43,–,–,–,–,CC1=C(C(=O)c2ccccc2)C(c2cccc(O)c2)NC(=S)N1C (stereo in doubt; form 3),5.93,–,–
